US6518246B1, “Pharmaceutical composition and method for the treatment of neoplastic cells” (priority 2001, dated 2003)

Experiments:
[1] = Deaths of animals during treatment, Example 1; type: in vivo, nude mice (C57BL/6JBom-nu); details: single substance 10 μg/kg every 12 hours; dissection: metastasis / abdominal carcinosis
Method: (§1) Female nude mice (C57BL/6JBom-nu, Bomholtgård Breeding and Research Centre, Denmark), 8 weeks old, with a mean body weight of 22.9 g (range 20.4-25.5), were used in this investigation. The mice were kept one to each cage in a laminar filtered airflow cabinet under pathogen-free conditions. The animals were kept under a constant temperature (22±2° C.) and relative humidity (55±5%), with 12 h dark/light cycles. They were fed on a standard pellet diet (R 34, Lactamin, Vadstena, Stockholm) and given water ad libitum. All experiments were performed by aseptic techniques under laminar airflow.
(§2) The animals were divided into two groups of 10 mice each. The first group received s.c. injections of 100 μl saline solution containing a mixture of octreotide (Sandostatin®, Novartis), galanin (synthetic human galanin, Sigma, Stockholm), and serotonin (5-hydroxytryptamine, oxalate salt, Sigma) at 10 μg/kg body weight each. Injections were administered every 12 hours for five days. The second group served as controls and received only saline solution. Thirty-two mice were implanted with the tumour as described above and left for seven days. After measuring the tumour diameter, the animals were divided into four groups of eight. […]

[2] = test system: N-methyl-N′-nitroguanidine-induced rat colonic adenocarcinoma; experiment: Tumour volume and wet weight, Example 1; type: in vivo, nude mice (C57BL/6JBom-nu); details: single substance 10 μg/kg body weight every 12 hours for five days, vs controls; for tumour volume: P=0.4; for tumour weight: P=0.8
Method: as §1
Twenty mice were injected s.c. with 100 μl cell suspension containing 2×10^6 viable cells of an N-methyl-N′-nitroguanidine-induced rat colonic adenocarcinoma (provided kindly by Professor L.-O. Hafström, Departnent of Surgery, University Hospital, Umeå, Sweden). After seven days, the greatest and least diameters of the tumours were measured and the volume was calculated with the use of the following formula:
volume=(mean diameter)^333 π/6.
(§3) The animals were divided into two groups of 10 mice each. The first group received s.c. injections of 100 μl saline solution containing a mixture of octreotide (Sandostatin®, Novartis), galanin (synthetic human galanin, Sigma, Stockholm), and serotonin (5-hydroxytryptamine, oxalate salt, Sigma) at 10 μg/kg body weight each. Injections were administered every 12 hours for five days. The second group served as controls and received only saline solution. Thirty-two mice were implanted with the tumour as described above and left for seven days. After measuring the tumour diameter, the animals were divided into four groups of eight. The first group was injected with 100 μl saline solution, the second with 100 μl saline solution containing 10 μg/kg body weight octreotide, the third group with 100 μl saline solution containing 10 μg/kg body weight galanin, and the last group was injected with 100 μl saline solution containing 10 μg/kg bodyweight serotonin. Injections were administered every 12 hours for five days.
(§4) At the end of the experiments, the animals were weighed and then decapitated. The tumours were dissected carefully and their diameters and weight were determined. Three tissue samples cut perpendicular to the surface were taken from each tumour, two from the periphery and one from the middle. The tissue samples were fixed overnight in 4% buffered paraformaldehyde, embedded in paraffin wax, and cut at 5 μm.

[3] = test system: N-methyl-N′-nitroguanidine-induced rat colonic adenocarcinoma; experiment: Apoptosis by in situ hybridisation, apoptotic index, Example 1; type: in vivo, nude mice (C57BL/6JBom-nu); details: single substance 10 μg/kg, five days; for Apoptotic index, second in situ hybridisation kit (mean±SD): controls 3.5±0.6, P=0.15; for Apoptotic index, first in situ hybridisation kit: vs controls, P=0.2
Method: as §3, §4
Apoptosis was detected by in situ hybridisation using two different kits (TA200 and TA5411) from R&D Systems Inc (Minneapolis, Minn. USA). Both kits detect DNA fragmentation, but with two different detection approaches. In the first kit, fragments of DNA were detected by incorporating modified nucleotides at the 3′OH ends of the fragments, using terminal deoxynucleotidyl transferase (TdT). The incorporated 5-bromodeoxyuridine (BrdU) was detected by a biotinylated anti-BrdU antibody. A streptavidin-conjugated horsradish peroxidase specifically bound to the biotinylated antibody. In the second kit, TdT added biotinylated nucleotides to the 3′OH ends of the DNA fragments. Again, a streptavidin-conjugated horseradish peroxidase specifically bound to the biotinylated DNA fragments. The peroxidase in both kits was detected by diaminobenzidine tetrahydrochloride (DAB). The sections were counter-stained with methyl green. […]
Apoptotic index was determined using the unbiased counting frames (as described in detail previously), adapted to computer image analysis (Palmqvist et al., 1998). […] About 40 fields from each tumour, spread randomly in sections from the three tissue samples, were measured. For each tumour about 200 positive and 200 negative nuclei were counted. The labelling index (LI) was calculated as follows: […]

[4] = test system: N-methyl-N′-nitroguanidine-induced rat colonic adenocarcinoma; experiment: Proliferation (PCNA immunostaining), proliferation index, Example 1; type: in vivo, nude mice (C57BL/6JBom-nu); details: single substance 10 μg/kg, five days; vs controls, P=0.8
Method: as §2
At the end of the experiments, the animals were weighed and then decapitated. The tumours were dissected carefully and their diameters and weight were determined. […]
To detect proliferation, the sections from the tumour tissue samples from all the animals were immnmostained with the avidin-biotin-complex (ABC) method (Dakopatts, Glostrup, Denmark), as described in detail earlier (E1-Salhy et al., 1993). […] Peroxidase was detected by immersing the sections in 50 ml Tris-buffer containing 25 mg diaminobenzidine tetrahydrochloride (DAB) and 10 μl of 30% H2O2 followed by slight counter-staining in Mayer's haematoxylin. […] The proliferating index was determined as described for apoptosis.

[5] = test system: asymptomatic advanced colon carcinoma; details: about 7 μ/kg/d; patients; cited from earlier work
[6] = test system: rat colonic cancer cells; details: in vivo; cited from earlier work

| Compound | deaths during the experiment [1] | tumour volume [2] | tumour weight [2] | Apoptotic index, second in situ hybridisation kit (mean±SD) [3] | Apoptotic index, first in situ hybridisation kit [3] | tumour proliferation index [4] | progression of the disease [5] | mitotic rate of rat colonic cancer cells [6] |
| --- | --- | --- | --- | --- | --- | --- | --- | --- |
| CC(C)C[C@H](NC(=O)CNC(=O)[C@H](CC(N)=O)NC(=O)[C@H](CCCCN)NC(=O)[C@H](CC(=O)O)NC(=O)[C@H](CO)NC(=O)[C@H](Cc1ccccc1)NC(=O)[C@H](CO)NC(=O)[C@H](CCCNC(=N)N)NC(=O)[C@H](Cc1cnc[nH]1)NC(=O)[C@H](CC(N)=O)NC(=O)CNC(=O)[C@@H](NC(=O)[C@H](C)NC(=O)[C@H](Cc1cnc[nH]1)NC(=O)[C@@H]1CCCN1C(=O)CNC(=O)[C@H](CC(C)C)NC(=O)[C@H](CC(C)C)NC(=O)[C@H](Cc1ccc(O)cc1)NC(=O)CNC(=O)[C@H](C)NC(=O)[C@H](CO)NC(=O)[C@H](CC(N)=O)NC(=O)[C@H](CC(C)C)NC(=O)[C@@H](NC(=O)[C@H](Cc1c[nH]c2ccccc12)NC(=O)CN)[C@@H](C)O)C(C)C)C(=O)N[C@H](C(=O)N[C@@H](CO)C(=O)O)[C@@H](C)O [galanin] | Two mice in the group treated with galanin died | – | – | – | – | – | – | – |
| octreotide | – | no significant difference | no significant difference | 3±1.1 | no difference | Neither was there any difference | no effect | – |
| NCCc1c[nH]c2ccc(O)cc12 [serotonin, 5-hydroxytryptamine] | – | no significant difference | no significant difference | 4±0.5 | no difference | Neither was there any difference | – | increase |
